Measurements published in US20250136652A1, “FUSION PROTEIN FOR TARGETING RECOMBINANT PROTEINS FOR DEGRADATION” (The Regents of the University of California, priority 2022, published 2025).

Tests used:
[1] = system: 4-1BB variant second-generation ('BBz') CARs that target CD19 or HER2; assay: Surface CAR expression in Jurkat T cells by anti-myc antibody stain and flow cytometry; format: cell-based; conditions: 72 hours after removal of lentivirus
Description: FIG. 4A: Tethering of STUD to plasma membrane allows for functional knockdown for second-generation chimeric antigen receptors (CAR). Cartoon diagram of membrane tethered STUD (‘memSTUD’) and non-functional (‘NF’) control relative to original ‘soluble’ STUD design. The DNA cartoon represents the plasmid used in experiments done in this panel. (RRRG (SEQ ID NO:32); TRGN (SEQ ID NO:50)).
FIG. 4B: Plasmid diagramed in FIG. 4A transduced into Jurkat T cells and CAR fluorescence measured 72 hours removal of lentivirus. CAR fluorescence is measured by antibody stain for myc tag fused to CAR extracellular domain. […] Dots represent three independent experiments and errors bars show standard deviation.
Increasing the local concentration of the STUD at the membrane by fusion to a membrane localization domain was tested. […] The surface CAR expression by fluorescence of this antibody stain was measured by flow cytometry.
Membrane targeting STUD: Membrane targeting cells were introduced by lentiviral transduction of two plasmids. […] Cells were then analyzed by flow cytometry. Cells were gated on expression of co-transduction fluorescent proteins (BFP/mCherry) and STUD efficacy was measured by knockdown of CAR/SynNotch. CAR and SynNotch expression was measured by antibody staining for a peptide tag fused to the extracellular domain of the CAR/SynNotch. […]

[2] = system: synthetic drug-inducible transcription factor (SynTF) fused to a SynZip; assay: STUD negative feedback circuit regulating SynTF in Jurkat T cells, GFP reporter; format: cell-based; conditions: GZV 72 hours at 37 C
Text: FIG. 6A: STUDs can be composed into negative feedback circuit to regulate synthetic transcription factor (SynTF). Cartoon diagram of plasmids used in negative feedback circuit transduced into Jurkat T cells. Synthetic transcription factors used in this work (grey) are made up of a transcriptional activation domain (AD) and a DNA binding domain (DBD) separated by a NS3 protease. In the absence of the NS3 inhibitor grazoprevir (GZV), the TF is destabilized and non-functional. On the other hand, the addition of GZV stabilizes the TF and allows for transcription of the gene cassette downstream of the SynTF promoter (pSynTF). Three types of circuits were designed: (1) A negative feedback circuit that has the SynTF driving expression of the GFP reporter and the STUD which results in degradation of the SynTF and shut off the circuit. […]
The circuit has three components: (1) a synthetic drug-inducible transcription factor (SynTF) fused to a SynZip, (2) a GFP reporter, and (3) a SynZip STUD that targets the SynTF (FIG. 6A). […] After incubation, we assay for GFP fluorescence by flow cytometry and gate on cells expressing the co-transduction markers (mCherry and tagBFP) for both plasmids relative to a untransduced control. […]

SynZip STUD: Fusion protein SEQ ID NO: 413: lysine-free modified synZIP18 heterodimerization domain, flexible linker, C-terminal RRRG degron; 55 amino acids (SIAATLENDLARLENENARLERDIANLERDLARLEREEAYFGSGSGSGSGSRRRG)
degradation of CAR (surface CAR expression) [1]: inefficiently
inhibition of SynTF (fold change of median GFP relative to DMSO) [2]: inhibits the SynTF
